The structures appear in SMILES notation.

T2 sequence (P52333 822-1111 limits assumed): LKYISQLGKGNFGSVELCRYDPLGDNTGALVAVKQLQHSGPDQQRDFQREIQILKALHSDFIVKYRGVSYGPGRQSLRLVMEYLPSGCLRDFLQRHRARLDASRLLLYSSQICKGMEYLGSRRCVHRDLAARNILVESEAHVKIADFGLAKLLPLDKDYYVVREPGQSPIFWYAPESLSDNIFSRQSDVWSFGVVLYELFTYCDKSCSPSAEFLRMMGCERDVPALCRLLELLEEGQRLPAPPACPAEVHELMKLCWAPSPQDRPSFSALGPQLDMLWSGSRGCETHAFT
T1 sequence (O60674 849-1124 limits assumed): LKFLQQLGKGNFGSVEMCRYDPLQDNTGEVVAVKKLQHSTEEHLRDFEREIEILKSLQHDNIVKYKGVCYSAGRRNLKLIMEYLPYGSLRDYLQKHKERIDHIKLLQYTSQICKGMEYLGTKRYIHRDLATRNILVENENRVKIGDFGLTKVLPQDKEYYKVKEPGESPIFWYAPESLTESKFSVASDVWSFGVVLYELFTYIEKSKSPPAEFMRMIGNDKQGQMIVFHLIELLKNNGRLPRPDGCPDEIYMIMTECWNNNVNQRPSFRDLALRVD

One experiment concerns the target T1, Jak2 (Homo sapiens, UniProt O60674).
T1 construct: The kinase domain of humanJAK2 was amplified from U937mRNA; His tag (from the pFastBac HTc vector; purified on nickel chelate); made in house; host or cells: baculovirus; Sf9 for virus, High Five insect cells for production
The experiment can be described thus: JAK kinase assay (ELISA or Alphascreen), JAK2 kinase domain. The format is biochemical. To be noted: capacity to inhibit 50% of JAK activity at 20 μM, standard conditions. The procedure: (§1) For screening purposes, compounds were diluted in 96 well plates at a concentration of 20 μM. Plates were warmed at 37° C. for 30 minutes before assay.
The kinase domain of humanJAK2 was amplified from U937mRNA using the polymerase chain reaction with the following primers: […]
JAK2 PCR products were cloned into the pFastBac HTc expression vector (Gibco®) via the Sal I and Not I sites. The JAK2 plasmid was then transformed into competent DH10Bac cells (Gibco®), and the recombinant baculovirus produced prepared for transfection into Sf9 insect cells.
Baculovirus preparations from each of the JAK family members were infected into five litres of High Five cells (Invitrogen) grown in High Five serum free medium (Invitrogen) to a cell density of approximately 1-2×10^6 cells/ml. Cells are infected with virus at a MOI of 0.8-3.0. Cells were harvested and lysed. […]
Kinase assays were performed in a 96 well capture-based ELISA assay or in 384 well Optiplates (Packard) using an Alphascreen Protein Tyrosine Kinase kit. […] In the ELISA assay tyrosine phosphorylation was quantitated following transfer to an avidin coated ELISA plate using peroxidase-linked anti-phospho-tyrosine antibody PY20. […] The ELISA plates were read on a BMG Fluorostar, the Alphascreen plates were read on a Packard Fusion Alpha. […]
Turning to `C=CC(=O)Nc1ccc2ncn(-c3cncc(N[C@@H](C)c4ccccc4)n3)c2c1` [N-[1-(6-([(1S)-1-Phenylethyl]amino]pyrazin-2-yl)-1H-benzimidazol-6-yl)acrylamide], the Jak2 result is recorded as “+ (Compounds that exhibited a capacity to inhibit 50% of JAK activity at a concentration of 20 μM (measured under standard conditions, see Methods), are designated as “+”)”.

A further experiment has as its target T2, Jak3 (Homo sapiens, UniProt P52333).
T2 construct: The kinase domain of humanJAK3 was amplified from U937mRNA; His tag (from the pFastBac HTb vector; purified on nickel chelate); made in house; host or cells: baculovirus; Sf9 for virus, High Five insect cells for production
The experiment can be described thus: JAK kinase assay (ELISA or Alphascreen), JAK3 kinase domain. The conditions noted are these: after 20 minute incubation with enzyme (prior to addition of ATP); read-out: apparent “IC50”. The format is biochemical. How it is done:
as §1
The kinase domain of humanJAK3 was amplified from U937mRNA using the polymerase chain reaction with the following primers: […]
JAK3 PCR products were cloned into the pFastBac HTb expression vector (Gibco®) via the Xho I and Kpn I sites. The JAK3 plasmid was then transformed into competent DH10Bac cells (Gibco®), and the recombinant baculovirus produced prepared for transfection into Sf9 insect cells.
Baculovirus preparations from each of the JAK family members were infected into five litres of High Five cells (Invitrogen) grown in High Five serum free medium (Invitrogen) to a cell density of approximately 1-2×10^6 cells/ml. Cells are infected with virus at a MOI of 0.8-3.0. Cells were harvested and lysed. JAK kinase domains were purified by affinity chromatography on a Probond (Invitrogen) nickel chelate affinity column.
Kinase assays were performed in a 96 well capture-based ELISA assay or in 384 well Optiplates (Packard) using an Alphascreen Protein Tyrosine Kinase kit. In either case using approximately 1.5 μg of affinity purified PTK domain in the presence of 50 mM HEPES, pH 7.5, 10 mM MgCl2, 150 mM NaCl and 10 μM-1 mM ATP. The biotinylated substrate biotin-EGPWLEEEEEAYGWMDF-NH2 (SEQ ID NO:9) (final concentration 5 μM) was used as substrate. In the ELISA assay tyrosine phosphorylation was quantitated following transfer to an avidin coated ELISA plate using peroxidase-linked anti-phospho-tyrosine antibody PY20. In the Alphascreen assay, Alphascreen phosphotyrosine acceptor beads followed by streptavidin donor beads were added under subdued light. The ELISA plates were read on a BMG Fluorostar, the Alphascreen plates were read on a Packard Fusion Alpha. […] Inhibitors were added in aqueous DMSO, with DMSO concentrations never exceeding 1%.
By IC50 is commonly meant the midpoint of a concentration-inhibition curve. Regarding `C=CC(=O)Nc1ccc2ncn(-c3cncc(NC(C)(C)C)n3)c2c1` [Example 20, N-{1-[6-(tert-Butylamino)pyrazin-2-yl]-1-H-benzimidazol-6-yl}acrylamide], the IC50 was about 40 nM.

Staying with this experiment, now noted: after 90 min pre-incubation; read-out: apparent “IC50”.
Consider `C=CC(=O)Nc1ccc2ncn(-c3cncc(NC(C)(C)C)n3)c2c1` [Example 20, N-{1-[6-(tert-Butylamino)pyrazin-2-yl]-1-H-benzimidazol-6-yl}acrylamide], for which the IC50 was 7 nM.

The experiment is the same for the next values; noted with them: capacity to inhibit 50% of JAK activity at 20 μM, standard conditions.
A word on the inhibition: it is how much of the control response was suppressed. Take `C=CC(=O)Nc1ccc2ncn(-c3cncc(N[C@@H](C)CC)n3)c2c1`: the inhibition at 20 µM was over 50%.

On to `C#CC(=O)Nc1ccc2ncn(-c3cncc(NC(C)(C)C)n3)c2c1`, for which the inhibition at 20 µM is over 50%.

Consider `C=CC(=O)Nc1ccc2ncn(-c3cncc(N[C@H](C)CC)n3)c2c1`, for which the inhibition at 20 µM was over 50%.

As to `C=CC(=O)Nc1ccc2ncn(-c3cncc(NCC4CC4)n3)c2c1`, the inhibition at 20 µM is over 50%.

As for `C=C(C)C(=O)Nc1ccc2ncn(-c3cncc(NC(C)(C)C)n3)c2c1`, the inhibition at 20 µM was over 50%.

As to `C=CC(=O)Nc1ccc2ncn(-c3cncc(-c4ccncc4)n3)c2c1`, the inhibition at 20 µM was over 50%.

Compound `C=CC(=O)Nc1ccc2ncn(-c3cncc(N(C)C)n3)c2c1` returned an inhibition at 20 µM of over 50%.

The compound `C=CC(=O)Nc1ccc2ncn(-c3cncc(-c4cccnc4)n3)c2c1` gave an inhibition at 20 µM of over 50%.

Compound `C=CC(=O)Nc1ccc2ncn(-c3cncc(N4CCCC4)n3)c2c1` returned an inhibition at 20 µM of over 50%.

Compound `C=CC(=O)Nc1ccc2ncn(-c3cncc(-c4ccc(C)o4)n3)c2c1` gave an inhibition at 20 µM of over 50%.

For `C=CC(=O)Nc1ccc2ncn(-c3cncc(N4CCCCC4)n3)c2c1`, the inhibition at 20 µM was over 50%.

`C=CC(=O)Nc1ccc2ncn(-c3cncc(N(C)C(C)C)n3)c2c1` displayed an inhibition at 20 µM of over 50%.

Take `C=CC(=O)Nc1ccc2ncn(-c3cncc(N[C@@H](C)c4ccccc4)n3)c2c1` [N-[1-(6-([(1S)-1-Phenylethyl]amino]pyrazin-2-yl)-1H-benzimidazol-6-yl)acrylamide]: the inhibition at 20 µM was over 50%.

`C=CC(=O)Nc1ccc2ncn(-c3cncc(Nc4ccccc4)n3)c2c1` [N-[1-(6-Anilinopyrazin-2-yl)-1H-benzimidazol-6-yl]acrylamide]: the Jak3 entry is recorded as “+ (Compounds that exhibited a capacity to inhibit 50% of JAK activity at a concentration of 20 μM (measured under standard conditions, see Methods), are designated as “+”)”.

For `C=CC(=O)Nc1ccc2ncn(-c3cncc(Cl)n3)c2c1` [N-[1-(6-Chloropyrazin-2-yl)-1H-benzimidazol-6-yl]acrylamide], the inhibition at 20 µM was over 50%.

With `C=CC(=O)Nc1ccc2ncn(-c3cncc(-c4ccccc4)n3)c2c1` [N-[1-(6-Phenylpyrazin-2-yl)-1H-benzimidazol-6-yl]acrylamide], the inhibition at 20 µM was over 50%.

Take `C=CC(=O)Nc1ccc2ncn(-c3cncc(-c4ccsc4)n3)c2c1` [N-[1-(6-Thien-3-ylpyrazin-2-yl)-1H-benzimidazol-6-yl]acrylamide]: the inhibition at 20 µM is over 50%.

`C=CC(=O)Nc1ccc2ncn(-c3cncc(N4CCOCC4)n3)c2c1` [N-[1-(6-morpholin-4-ylpyrazin-2-yl)-1H-benzimidazol-6-yl]acrylamide] returned an inhibition at 20 µM of over 50%.

As for `C=CC(=O)Nc1ccc2ncn(-c3cncc(-c4cn[nH]c4)n3)c2c1` [N-{1-[6-(1H-Pyrazol-4-yl)pyrazin-2-yl]-1H-benzimidazol-6-yl}acrylamide], the inhibition at 20 µM was over 50%.

The compound `C=CC(=O)Nc1ccc2ncn(-c3cncc(-c4ccc(F)c(Cl)c4)n3)c2c1` [N-{1-[6-(3-Chloro-4-fluorophenyl)pyrazin-2-yl]-1H-benzimidazol-6-yl}acrylamide] returned an inhibition at 20 µM of over 50%.

Compound `C=CC(=O)Nc1ccc2ncn(-c3cncc(N4CCN(C)CC4)n3)c2c1` [N-{1-[6-(4-Methylpiperazin-1-yl)pyrazin-2-yl]-1H-benzimidazol-6-yl}acrylamide] showed an inhibition at 20 µM of over 50%.

For the compound `C=CC(=O)Nc1ccc2ncn(-c3cncc(NC(C)C)n3)c2c1` [N-{1-[6-(Isopropylamino)pyrazin-2-yl]-1H-benzimidazol-6-yl]acrylamide], the inhibition at 20 µM was over 50%.

For the compound `C=CC(=O)Nc1ccc2ncn(-c3cncc(NC)n3)c2c1` [N-{1-[6-(Methylamino)pyrazin-2-yl]-1H-benzimidazol-6-yl}acrylamide], the inhibition at 20 µM was over 50%.

In turn, `C=CC(=O)Nc1ccc2ncn(-c3cncc(NC(C)(C)C)n3)c2c1` [drawing 98] returned an inhibition at 20 µM of over 50%.

The values above are taken from patent publication US8329737B2, “Benzimidazoles as selective kinase inhibitors” (YM Biosciences Australia PTY Ltd, priority 2004, dated 2012).
